How the values were obtained:
[1] = biological target: T1, eIF4G1 binding to eIF4E-cap complex (Homo sapiens, UniProt Q04637); assay: Cap-binding assay on m7GTP cap-analog agarose beads; assay type: cell-based; settings: HEK293T; i14G1-10 20 μM, i14G1-12 10 μM; 4 hours
T1 construct: endogenous in cells; host or cells: HEK293T
Protocol: FIGS. 2A-C: The effect of i14G1-10 and i14G1-12 on eIF1-eIF4G1 and eIF4E-eIF4G1 complexes. (2A-B) HA-eIF1 and HA-eIF4E were each transfected into HEK293T cells and 48 h after transfection cells were treated with DMSO or i14G1-10 (2A) or i14G1-12 (2B) for 4 h, followed by immunoprecipitation of HA-eIF1 or HA-eIF4E using anti-HA-agarose beads. Western blot was run to check co-immunoprecipitation of endogenous eIF4G1 with HA-eIF1 or HA-eIF4E. The graphs represent the co-immunoprecipitation of eIF4G1 with HA-eIF1 (right) or HA-eIF4E (left). Co—IP data shown as mean±SEM of 4-7 independent experiments. The asterisks denote statistically significant difference compared to DMSO, according to Student's t-tests (one-tailed, paired). *p<0.05. (2C) HEK293T cells were treated with DMSO, i14G1-10, or i14G1-12 for 4 h, followed by cell lysis. Respective cell lysates were incubated with cap analog (γ-Aminohexyl-m7GTP) beads for 2 h to precipitate bound eIF4E. Western blot was performed to check co-precipitation of eIF4G1 along with eIF4E on the cap-analog beads. The graph represents the binding fraction of eIF4G1 and eIF4E to the cap-analog beads (mean±SEM) with DMSO (black), i14G1-10 (blue), and i14G1-12 (red), n=6. The asterisks denote statistically significant difference compared to DMSO, according to Student's t-tests (one-tailed, paired). *p<0.05; **p<0.01.
Cap-binding Assay. […]

[2] = test system: 5′UTR length-dependent translation in HEK293T cells; assay: Firefly luciferase reporters with long (354 nt) and short (111 nt) 5′UTR; assay type: cell-based, human; settings: 5 μM, 16 h
Protocol: FIGS. 5A-D: 5′UTR length-dependent translational control by the eIF1-eIF4G1. […] The asterisks denote a statistically significant difference. **p<0.01, ****p<0.0001. (5B) A scheme of the firefly reporter genes that are driven by long (354 nt) and short (111 nt) 5′ UTR length, is shown on the top. HEK293T cells were transfected with these reporter genes. After 4 h, transfected cells were treated with DMSO, i14G1-10 (5 μM), or i14G1-12 (5 μM) for 16 h and analyzed for firefly luciferase activities. The graph presents the normalized luminescence activity of the long 5′UTR and the short 5′UTR reporters in the indicated treatments. The data are shown as mean±SEM, n=6. The asterisks denote statistically significant difference compared to DMSO, according to Student's t-tests (one-tailed, paired). *p<0.05; **p<0.01. (5C-D) HEK293T cells were treated with DMSO, i14G1-10, and i14G1-12 for 3 h, lysed, and subjected to sucrose gradient sedimentation and fractionation. Fractions were pooled according to polysome profile as free (grey), light (blue), and heavy (yellow) polysomal fractions. cDNA was prepared from each fraction pool and real-time PCR was performed for the indicated TISU genes (5C) or histone genes (5D). The data are shown as mean±SEM, n=3. The asterisks denote statistically significant difference compared to DMSO, according to Student's t-tests (one-tailed, paired), *p<0.05; **p<0.01.
Since both eIF1 and eIF4G1 are important for scanning, the relationship between the translational effects of the inhibitors and the 5′UTR length was examined. […] To investigate further the link between the effect of the drug and 5′UTR length, we used two firefly luciferase reporters we used that differ only in their 5′UTR length: a short 5′UTR with 111 nucleotides and a long 5′UTR with 354 nucleotides. […] These findings confirm the inhibitory effect of these compounds on the scanning promoting activity of the eIF1-eIF4G1 complex.

T1 sequence (Q04637 whole entry): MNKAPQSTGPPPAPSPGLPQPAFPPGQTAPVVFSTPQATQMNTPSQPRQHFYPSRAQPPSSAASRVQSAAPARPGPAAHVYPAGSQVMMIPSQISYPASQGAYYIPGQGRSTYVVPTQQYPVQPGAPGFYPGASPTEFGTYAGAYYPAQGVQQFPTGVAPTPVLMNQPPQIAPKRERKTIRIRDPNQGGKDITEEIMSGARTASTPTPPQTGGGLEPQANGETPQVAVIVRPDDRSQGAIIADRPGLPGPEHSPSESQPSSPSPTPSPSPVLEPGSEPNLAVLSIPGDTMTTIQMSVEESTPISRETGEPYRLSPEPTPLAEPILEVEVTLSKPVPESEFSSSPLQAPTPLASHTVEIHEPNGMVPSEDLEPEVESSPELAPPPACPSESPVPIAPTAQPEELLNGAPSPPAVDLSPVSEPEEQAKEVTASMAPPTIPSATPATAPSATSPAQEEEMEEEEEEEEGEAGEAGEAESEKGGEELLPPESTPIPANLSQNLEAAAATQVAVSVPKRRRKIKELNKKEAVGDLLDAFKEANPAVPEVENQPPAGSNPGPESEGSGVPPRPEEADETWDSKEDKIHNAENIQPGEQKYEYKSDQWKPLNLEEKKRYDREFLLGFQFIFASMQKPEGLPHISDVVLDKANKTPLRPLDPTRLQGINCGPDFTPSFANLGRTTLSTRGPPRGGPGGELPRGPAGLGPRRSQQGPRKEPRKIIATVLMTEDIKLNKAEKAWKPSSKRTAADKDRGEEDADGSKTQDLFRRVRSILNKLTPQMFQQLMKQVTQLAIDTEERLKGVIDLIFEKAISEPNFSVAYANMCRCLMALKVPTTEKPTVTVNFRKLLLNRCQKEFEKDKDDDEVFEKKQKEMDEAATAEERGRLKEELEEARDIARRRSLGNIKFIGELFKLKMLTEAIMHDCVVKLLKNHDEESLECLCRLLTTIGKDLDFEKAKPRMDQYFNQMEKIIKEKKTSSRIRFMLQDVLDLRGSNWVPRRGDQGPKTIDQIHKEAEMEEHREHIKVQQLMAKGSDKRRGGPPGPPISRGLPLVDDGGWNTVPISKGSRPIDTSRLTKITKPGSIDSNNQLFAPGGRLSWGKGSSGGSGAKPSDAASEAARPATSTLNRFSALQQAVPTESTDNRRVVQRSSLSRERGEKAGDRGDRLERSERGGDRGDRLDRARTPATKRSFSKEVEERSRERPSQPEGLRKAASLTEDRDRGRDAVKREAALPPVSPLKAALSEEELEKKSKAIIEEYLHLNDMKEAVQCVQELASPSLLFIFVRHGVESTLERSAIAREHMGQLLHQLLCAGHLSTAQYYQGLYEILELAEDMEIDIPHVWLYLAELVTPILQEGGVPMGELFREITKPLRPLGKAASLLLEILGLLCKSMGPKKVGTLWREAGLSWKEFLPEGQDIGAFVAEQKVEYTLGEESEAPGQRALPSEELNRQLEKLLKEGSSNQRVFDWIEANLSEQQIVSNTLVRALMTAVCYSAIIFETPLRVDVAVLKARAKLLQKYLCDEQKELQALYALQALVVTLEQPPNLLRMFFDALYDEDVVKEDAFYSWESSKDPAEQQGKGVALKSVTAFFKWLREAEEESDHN
T1 sequence (P06730 2-217 partner limits assumed): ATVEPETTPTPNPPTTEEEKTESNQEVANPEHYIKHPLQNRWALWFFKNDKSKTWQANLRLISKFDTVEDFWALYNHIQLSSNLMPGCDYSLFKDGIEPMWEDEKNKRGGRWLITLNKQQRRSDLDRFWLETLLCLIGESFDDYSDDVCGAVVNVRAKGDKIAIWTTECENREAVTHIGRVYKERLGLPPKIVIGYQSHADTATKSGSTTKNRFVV

SMILES: O=C(/C=C/Sc1ccc(C(F)(F)F)cn1)c1ccccc1 [i14G1-10]
- enhancement of eIF4G1 binding to eIF4E-cap complex [1]: 1.8 folds
- luciferase reporter expression driven by the longer 5′UTR (354 nucleotides) [2]: significantly decreased
- luciferase reporter expression driven by the shorter 5′UTR (111 nucleotides) [2]: did not affect

SMILES: Cn1ccnc1S/C(=C/C=C(C#N)C#N)c1ccc(Cl)cc1 [i14G1-12]
- enhancement of eIF4G1 binding to eIF4E-cap complex [1]: no significant effect
- luciferase reporter expression driven by the longer 5′UTR (354 nucleotides) [2]: significantly decreased
- luciferase reporter expression driven by the shorter 5′UTR (111 nucleotides) [2]: did not affect

From patent US20250090510A1, “eIF4G1-eIF1 INHIBITORS AND USE THEREOF” (YEDA RESEARCH AND DEVELOPMENT CO. LTD., priority 2022, published 2025)
